Experimental data reported in ChEMBL document CHEMBL2311364, “Novel peptidomimetics as BACE-1 inhibitors: synthesis, molecular modeling, and biological studies” (Bioorg Med Chem Lett, 2013).
Active and inactive are the calls of the source. The rule behind the calls is not given here.

Columns and labels:
Beta-secretase 1 [1] = target: T1, Beta-secretase 1 (Homo sapiens, UniProt P56817); test: Inhibition of human recombinant BACE-1 using acetyl-C(W8044-Eu)-EVNLDAEFK-QSY7 as substrate by TR-FRET assay
T1 sequence (P56817 whole entry): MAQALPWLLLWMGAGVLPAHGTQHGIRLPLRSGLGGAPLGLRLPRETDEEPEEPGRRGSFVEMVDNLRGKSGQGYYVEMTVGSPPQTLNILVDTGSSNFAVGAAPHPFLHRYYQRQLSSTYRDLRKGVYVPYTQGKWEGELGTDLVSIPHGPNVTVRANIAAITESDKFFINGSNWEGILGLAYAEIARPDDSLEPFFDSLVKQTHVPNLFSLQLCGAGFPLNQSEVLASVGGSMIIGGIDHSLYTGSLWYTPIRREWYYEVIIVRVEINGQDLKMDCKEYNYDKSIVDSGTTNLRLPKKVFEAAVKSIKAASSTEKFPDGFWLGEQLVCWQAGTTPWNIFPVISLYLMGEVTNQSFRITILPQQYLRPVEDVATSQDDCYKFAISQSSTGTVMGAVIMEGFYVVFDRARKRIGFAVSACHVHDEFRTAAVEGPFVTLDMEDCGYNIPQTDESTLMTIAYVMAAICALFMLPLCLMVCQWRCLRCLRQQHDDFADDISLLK

Beta-secretase 1 [2] = target: T1, Beta-secretase 1; test: Inhibition of human recombinant BACE-1 using acetyl-C(W8044-Eu)-EVNLDAEFK-QSY7 as substrate at 100 uM by TR-FRET assay
Beta-secretase 1 [3] = target: T1, Beta-secretase 1; test: Inhibition of BACE1 in HEK293 cells expressing modified BACE cleavage sequence of APP, NFEV and K612V mutation; format: cell-based
Beta-secretase 1 [4] = target: T1, Beta-secretase 1; test: Inhibition of BACE1 in human SHSY5Y cells expressing APP NFEV and wild-type alpha-cleavage site; format: cell-based, SH-SY5Y

| Structure (SMILES) | IC50 (Beta-secretase 1 [1]) | inhibition (Beta-secretase 1 [2]) | IC50 (Beta-secretase 1 [3]) | IC50 (Beta-secretase 1 [4]) |
| --- | --- | --- | --- | --- |
| O=C1Nc2ccccc2C(c2ccccc2)=N[C@H]1C(O)CN1CCNCC1 (stereo partly drawn) | 12.5 µM |  |  |  |
| CC(C)(C)OC(=O)N1CCN(CC(O)c2ccc(C(=O)c3ccccc3)c(NC(=O)[C@H](NC(=O)OCc3ccccc3)c3ccccc3)c2)CC1 (stereo partly drawn) | 4.9 µM |  |  |  |
| O=C1Nc2c(cccc2N2CCNCC2)C(c2ccccc2)=N[C@H]1c1ccccc1 |  | inactive |  |  |
| CC(C)(C)OC(=O)N1CCN(c2cccc3c2NC(=O)[C@H](Cc2ccccc2)N=C3c2ccccc2)CC1 |  | inactive |  |  |
| O=C(N[C@H](C(=O)Nc1cc(C(O)CNCc2ccccc2)ccc1C(=O)c1ccccc1)c1ccccc1)OCc1ccccc1 (stereo partly drawn) | 2.4 µM |  | > 2.6 µM | > 1.2 µM |
| O=C(N[C@@H](C(=O)Nc1cc(C(O)CNCc2ccccc2)ccc1C(=O)c1ccccc1)c1ccccc1)OCc1ccccc1 (stereo partly drawn) | 2.6 µM |  | > 2.6 µM | > 1.2 µM |
| O=C1Nc2cc(C(CO)NCc3ccccc3)ccc2C(c2ccccc2)=N[C@H]1c1ccccc1 (stereo partly drawn) |  |  | > 22 µM | > 11 µM |
| CC(C)(C)OC(=O)N1CCN(CC(O)c2ccc3c(c2)NC(=O)[C@@H](c2ccccc2)N=C3c2ccccc2)CC1 (stereo partly drawn) |  | inactive |  |  |
| O=C(N[C@H](C(=O)Nc1cc(C(CO)NCc2ccccc2)ccc1C(=O)c1ccccc1)c1ccccc1)OCc1ccccc1 (stereo partly drawn) | 4.1 µM |  | > 2.6 µM | > 1.2 µM |
| CC(C)(C)OC(=O)N1CCN(c2cccc3c2NC(=O)[C@H](CCc2ccccc2)N=C3c2ccccc2)CC1 |  | inactive |  |  |
| O=C1Nc2cc(C(O)CNCc3ccccc3)ccc2C(c2ccccc2)=N[C@@H]1c1ccccc1 (stereo partly drawn) |  | inactive |  |  |
| CC(C)(C)OC(=O)N1CCN(c2cccc(C(=O)c3ccccc3)c2NC(=O)[C@@H](NC(=O)OCc2ccccc2)c2ccccc2)CC1 |  | inactive |  |  |
| O=C1Nc2cc(C(CO)NCc3ccccc3)ccc2C(c2ccccc2)=N[C@@H]1c1ccccc1 (stereo partly drawn) | 10.9 µM |  |  |  |
| CC(C)(C)OC(=O)N1CCN(c2cccc3c2NC(=O)[C@@H](c2ccccc2)N=C3c2ccccc2)CC1 | 43 µM |  |  |  |
| CC(C)(C)OC(=O)N1CCN(c2cccc3c2NC(=O)[C@H](c2ccccc2)N=C3c2ccccc2)CC1 | 35 µM |  |  |  |
| O=C(N[C@@H](C(=O)Nc1cc(C(CO)NCc2ccccc2)ccc1C(=O)c1ccccc1)c1ccccc1)OCc1ccccc1 (stereo partly drawn) | 4.2 µM |  |  |  |
